In publication PMC5547389, “Structure-activity relationships and molecular docking studies of chromene and chromene based azo chromophores: A novel series of potent antimicrobial and anticancer agents” (EXCLI Journal, 2017):
Converted amounts (≈) assume the structure as drawn.

What was measured:
[1] = system: Human colon carcinoma (HCT-116); test: Cytotoxic screening; assay type: cell-based; details: Homo sapiens, HCT-116; read-out: IC50 HCT-116
In short: (§1)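 Read-out is crystal violet staining (the text also names MTT), lysis in 33 % acetic acid, A590, with untreated cells as 100 %. IC50 was estimated graphically from survival curves.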

[2] = system: human hepatocellular carcinoma (HEPG-2); test: Cytotoxic screening; assay type: cell-based; details: HepG2, read-out: IC50 HepG-2
In short: as §1

[3] = system: human breast adenocarcinoma (MCF-7); test: Cytotoxic screening; assay type: cell-based; details: Homo sapiens, MCF7; read-out: IC50 MCF-7
In short: as §1

[4] = system: Bacillus subtilis (RCMB 010067); test: MIC by serial dilution method; assay type: cell-based; details: RCMB010067, Gm+ve, read-out: Minimum inhibitory concentration, MIC, B.S
In short: (§2)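 Using ampicillin, ciprofloxacin, gentamicin and amphotericin B as standard drugs, test compounds are screened by agar well diffusion, and their minimum inhibitory concentrations are then measured by serial dilution.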

[5] = system: Aspergillus fumigatus (RCMB 02568); test: MIC by serial dilution method; assay type: cell-based; details: RCMB02568, fungi, read-out: Minimum inhibitory concentration, MIC, A.F
In short: as §2

[6] = system: Escherichia coli (RCMB 010052); test: MIC by serial dilution method; assay type: cell-based; details: RCMB010052, Gm-ve, read-out: Minimum inhibitory concentration, MIC, E.C
In short: as §2

[7] = system: Syncephalastrum racemosum (RCMB 05922); test: MIC by serial dilution method; assay type: cell-based; details: RCMB05922, fungi, read-out: Minimum inhibitory concentration, MIC, S.R
In short: as §2

[8] = system: Streptococcus pneumoniae (RCMB 010010); test: MIC by serial dilution method; assay type: cell-based; details: RCMB010010, Gm+ve, read-out: Minimum inhibitory concentration, MIC, S.P
In short: as §2

[9] = system: Geotricum candidum (RCMB 05097); test: MIC by serial dilution method; assay type: cell-based; details: fungi; read-out: Minimum inhibitory concentration, MIC, G.C
In short: as §2

## N#CC1=C(N)Oc2c(ccc3c(N)cccc23)C1c1ccc(F)cc1 (stereo not drawn) [7c]
[1]
  IC50: 2 µg/mL (≈ 6.04 µM)
[2]
  IC50: 0.7 µg/mL (≈ 2.11 µM)
[3]
  IC50: 1.4 µg/mL (≈ 4.23 µM)

## N#CC1=C(N)Oc2c(N)cc3ccccc3c2C1c1ccc(F)cc1 (stereo not drawn) [4a, 3,5-diamino-1-(4-fluorophenyl)-1H-benzo[f]chromene-2-carbonitrile]
[4]
  MIC: 3.9 µg/mL (≈ 11.8 µM)
[5]
  MIC: 15.6 µg/mL (≈ 47.2 µM)
[6]
  MIC: 7.81 µg/mL (≈ 23.6 µM)
[7]
  MIC: 7.81 µg/mL (≈ 23.6 µM)
[8]
  MIC: 15.6 µg/mL (≈ 47.2 µM)
other
  melting point: 193 °C
[1]
  IC50: 1 µg/mL (≈ 3.02 µM)
[2]
  IC50: 0.3 µg/mL (≈ 0.905 µM)
[3]
  IC50: 1 µg/mL (≈ 3.02 µM)

## COc1ccc(N=Nc2cc3c(cc2O)OC(N)=C(C#N)C3c2ccc(F)cc2)cc1 (stereo not drawn) [13b, 2-Amino-4-(4-fluoro-phenyl)-7-hydroxy-6-(4-methoxy-phenylazo)-4H-chromene-3-carbonitrile]
[4]
  MIC: 3.9 µg/mL (≈ 9.37 µM)
[5]
  MIC: 62.5 µg/mL (≈ 150 µM)
[6]
  MIC: 15.6 µg/mL (≈ 37.5 µM)
[7]
  MIC: 62.5 µg/mL (≈ 150 µM)
[9]
  MIC: 31.2 µg/mL (≈ 74.9 µM)
[8]
  MIC: 31.2 µg/mL (≈ 75 µM)
other
  melting point: 272 °C
[1]
  IC50: 2.41 µg/mL (≈ 5.79 µM)
[2]
  IC50: 5.4 µg/mL (≈ 13 µM)
[3]
  IC50: 3.78 µg/mL (≈ 9.08 µM)

## N#CC1=C(N)Oc2c(N)cc3ccccc3c2C1c1ccc(Cl)cc1 (stereo not drawn) [4b, 3,5-diamino-1-(4-chlorophenyl)-1H-benzo[f]chromene-2-carbonitrile]
[4]
  MIC: 0.007 µg/mL (≈ 0.0201 µM)
[5]
  MIC: 0.24 µg/mL (≈ 0.69 µM)
[6]
  MIC: 15.6 µg/mL (≈ 44.9 µM)
[7]
  MIC: 31.2 µg/mL (≈ 89.8 µM)
[9]
  MIC: 0.03 µg/mL (≈ 0.0863 µM)
[8]
  MIC: 0.49 µg/mL (≈ 1.41 µM)
other
  melting point: 187 °C
[1]
  IC50: 1.1 µg/mL (≈ 3.16 µM)
[2]
  IC50: 1 µg/mL (≈ 2.88 µM)
[3]
  IC50: 1 µg/mL (≈ 2.88 µM)

## Cc1ccc(C2C(C#N)=C(N)Oc3c(N)cc4ccccc4c32)cc1 (stereo not drawn) [4c, 3,5-diamino-1-(p-tolyl)-1H-benzo[f]chromene-2-carbonitrile]
[4]
  MIC: 7.81 µg/mL (≈ 23.9 µM)
[5]
  MIC: 3.9 µg/mL (≈ 11.9 µM)
[6]
  MIC: 62.5 µg/mL (≈ 191 µM)
[7]
  MIC: 31.2 µg/mL (≈ 95.5 µM)
[9]
  MIC: 7.81 µg/mL (≈ 23.9 µM)
[8]
  MIC: 7.81 µg/mL (≈ 23.9 µM)
other
  melting point: 180 °C
[1]
  IC50: 1.1 µg/mL (≈ 3.36 µM)
[2]
  IC50: 0.3 µg/mL (≈ 0.916 µM)
[3]
  IC50: 0.8 µg/mL (≈ 2.44 µM)
